From patent US9493487B2, “3-(1H-imidazo[4,5-C]pyridin-2-YL)-1H-pyrazolo[3,4-B]pyridine and therapeutic uses thereof” (Samumed, LLC, priority 2014, dated 2016) come the findings set out here.

The subject of assay [1] is primary human fibroblasts derived from IPF patients (LL29 cells). The assay can be described thus: Inhibition of TGF-β1-induced fibrosis (αSMA staining) in primary human fibroblasts from IPF patients. Type of assay: cell-based. Conditions: Fibroblast, 96 h, TGF-β1 20 ng/mL, 4 days, 11-point dose-response 10 μM to 1.87 nM. The source says:
The above synthesized compounds were screened using primary human fibroblasts (derived from IPF patients) treated with TGF-β1 to determine their ability to inhibit the fibrotic process.
Primary human fibroblasts derived from IPF patients (LL29 cells) [^1Xiaoqiu Liu, et. al., “Fibrotic Lung Fibroblasts Show Blunted Inhibition by cAMP Due to Deficient cAMP Response Element-Binding Protein Phosphorylation”, Journal of Pharmacology and Experimental Therapeutics (2005), 315(2), 678-687; ^2Watts, K. L., et. al., “RhoA signaling modulates cyclin D1 expression in human lung fibroblasts; implications for idiopathic pulmonary fibrosis”, Respiratory Research (2006), 7(1), 88] were obtained from American Type Culture Collection (ATCC) and expanded in F12 medium supplemented with 15% Fetal Bovine Serum and Penicillin/Streptomycin.
Each compound was dissolved in DMSO as a 10 mM stock and used to prepare compound source plates. Serial dilution (1:2, 11-point dose-response curves from 10 μM to 1.87 nM) and compound transfer was performed using the ECHO 550 (Labcyte, Sunnyvale, Calif.) into 384-well clear bottom assay plates (Greiner Bio-One) with appropriate DMSO backfill for a final DMSO concentration of 0.1%. LL29 cells were plated at 1,500 cells/well in 80 μl/well F12 medium supplemented with 1% Fetal Bovine Serum. One hour after addition of the cells, TGF-β1 (Peprotech; 20 ng/mL) was added to the plates to induce fibrosis (ref. 1 and 2 above). Wells treated with TGF-β1 and containing DMSO were used as controls. Cells were incubated at 37° C. and 5% CO2 for 4 days. Following incubation for 4 days, SYTOX green nucleic acid stain (Life Technologies [Thermo Fisher Scientific]) was added to the wells at a final concentration of 1 uM and incubated at room temperature for 30 min. Cells were then fixed using 4% formaldehyde (Electron Microscopy Sciences), washed 3 times with PBS followed by blocking and permeabilization using 3% Bovine Serum Albumin (BSA; Sigma) and 0.3% Triton X-100 (Sigma) in PBS. Cells were then stained with antibody specific to α-smooth muscle actin (αSMA; Abcam) (ref 1 and 2 above) in 3% Bovine Serum Albumin (BSA; Sigma) and 0.3% Triton X-100 (Sigma) in PBS, and incubated overnight at 4° C. Cells were then washed 3 times with PBS, followed by incubation with Alexa Flor-647 conjugated secondary antibody (Life Technologies [Thermo Fisher Scientific]) and DAPI at room temperature for 1 hour. Cells were then washed 3 times with PBS and plates were sealed for imaging. αSMA staining was imaged by excitation at 630 nm and emission at 665 nm and quantified using the Compartmental Analysis program on the CellInsight CX5 (Thermo Scientific). Dead or apoptotic cells were excluded from analysis based on positive SYTOX green staining. % of total cells positive for αSMA were counted in each well and normalized to the average of 11 wells treated with TGF-β1 on the same plate using Dotmatics' Studies Software. The normalized averages (fold change over untreated) of 3 replicate wells for each compound concentration were used to create dose-responses curves and EC50 values were calculated using non-linear regression curve fit in the Dotmatics' Studies Software. The EC50 values are reported.

In assay [2] the test system is Wnt activity (Sp5-Luc reporter, SW480 colon carcinoma cells). The experiment in a line: Sp5-Luc Wnt reporter gene assay in SW480 colon carcinoma cells. Conditions: Homo sapiens; SW480 cells stably expressing Sp5-Luc reporter; 42 h incubation; BrightGlo luminescence normalized to DMSO. It is filed as cell-based. The text has this: The screening assay for Wnt activity is described as follows. Reporter cell lines can be generated by stably transducing cancer cell lines (e.g., colon cancer) or primary cells (e.g., IEC-6 intestinal cells) with a lentiviral construct that includes a Wnt-responsive promoter driving expression of the firefly luciferase gene.
SW480 colon carcinoma cells were transduced with a lentiviral vector expressing luciferase with a human Sp5 promoter consisting of a sequence of eight TCF/LEF binding sites. SW480 cells stably expressing the Sp5-Luc reporter gene and a hygromycin resistance gene were selected by treatment with 150 μg/ml of hygromycin for 7 days. These stably transduced SW480 cells were expanded in cell culture and used for all further screening activities. For Sp5-Luc reporter gene assays, the cells were plated at 10,000 cells/well in 96-well plates with growth medium containing 10% fetal calf serum and incubated overnight at 37° C. and 5% CO2. Each compound was dissolved in DMSO as a 10 mM stock in standard j-vials and used to prepare compound source plates in dose-response format with 3-fold serial dilutions and a 10 mM top concentration. Compound transfer from serially diluted source plates to assay plates containing the cells was accomplished using a pintool (Multimek 96, Beckman equipped with V&P Scientific FP1S50H pins) based liquid handling protocol. This protocol used a slotted pin to transfer 50 nl of compound from a source plate well to an assay plate well containing 50 μl of cells in growth medium. […] Control wells received 50 nl of DMSO treatment for normalization and calculating IC50 values. The treated cells were incubated at 37° C. and 5% CO2 for an additional forty-two hours. Following incubation, the growth medium was removed and 50 μl of BrightGlo luminescence reagent (Promega) was added to each well of the 96-well assay plates. The plates were placed on an orbital shaker for 5 min and then luminescence was quantified on the Victor3 (Perkin Elmer) plate reader. Readings were normalized to DMSO only treated cells, and normalized activities were utilized for IC50 calculations using the dose-response log (inhibitor) vs. response-variable slope (four parameters) nonlinear regression feature available in GraphPad Prism 5.0 or 6.0.

Molecules are shown by their SMILES.

For the compound `CCCCC(=O)Nc1cncc(-c2cnc3[nH]nc(-c4nc5c(-c6ccccn6)nccc5[nH]4)c3c2)c1` [Compound 148, N-(5-(3-(4-(Pyridin-2-yl)-1H-imidazo[4,5-c]pyridin-2-yl)-1H-pyrazolo[3,4-b]pyridin-5-yl)pyridin-3-yl)pentanamide], a half-maximal effect in assay [1] (EC50) was put at 9 nM. For the same compound, in assay [2], half-maximal inhibition (IC50) was put at 6160 nM.

Consider `CCC(=O)Nc1cncc(-c2cnc3[nH]nc(-c4nc5c(N6CCCCC6)nccc5[nH]4)c3c2)c1` [Compound 157, N-(5-(3-(4-(Piperidin-1-yl)-1H-imidazo[4,5-c]pyridin-2-yl)-1H-pyrazolo[3,4-b]pyridin-5-yl)pyridin-3-yl)propionamide], for which the EC50 – broadly, the concentration that produces a half-maximal response – in assay [1] was 432 nM. For the same compound, the IC50 (as a rule, the concentration that gives 50% inhibition) in assay [2] amounted to 148 nM.

Regarding `CN(C)c1cncc(-c2cnc3[nH]nc(-c4nc5c(N6CCCCC6)nccc5[nH]4)c3c2)c1` [Compound 163, N,N-Dimethyl-5-(3-(4-(piperidin-1-yl)-1H-imidazo[4,5-c]pyridin-2-yl)-1H-pyrazolo[3,4-b]pyridin-5-yl)pyridin-3-amine], in assay [1], the midpoint of the response, the EC50, lay at 9 nM. In addition, in assay [2], the concentration for half-maximal inhibition (IC50) came out at 777 nM.

In assay [1], `CN(C)Cc1cncc(-c2cnc3[nH]nc(-c4nc5c(N6CCCCC6)nccc5[nH]4)c3c2)c1` [Compound 169, N,N-Dimethyl-1-(5-(3-(4-(piperidin-1-yl)-1H-imidazo[4,5-c]pyridin-2-yl)-1H-pyrazolo[3,4-b]pyridin-5-yl)pyridin-3-yl)methanamine] had an EC50 of 888 nM. Also, the IC50 in assay [2] was 2270 nM.

`O=C(Nc1cncc(-c2cnc3[nH]nc(-c4nc5c(N6CCCCC6)nccc5[nH]4)c3c2)c1)C1CC1` [Compound 175, N-(5-(3-(4-(Piperidin-1-yl)-1H-imidazo[4,5-c]pyridin-2-yl)-1H-pyrazolo[3,4-b]pyridin-5-yl)pyridin-3-yl)cyclopropanecarboxamide] showed an EC50 in assay [1] of 859 nM. Moreover, the IC50 in assay [2] amounted to 413 nM.

On to `FC1(F)CCN(Cc2cncc(-c3cnc4[nH]nc(-c5nc6c(N7CCCCC7)nccc6[nH]5)c4c3)c2)C1` [Compound 181, 5-(5-((3,3-Difluoropyrrolidin-1-yl)methyl)pyridin-3-yl)-3-(4-(piperidin-1-yl)-1H-imidazo[4,5-c]pyridin-2-yl)-1H-pyrazolo[3,4-b]pyridine], for which, in assay [1], the EC50 was 1130 nM. The compound further came in with an IC50 in assay [2] of 243 nM.

Compound `Cc1cn(-c2nccc3[nH]c(-c4n[nH]c5ncc(-c6cncc(CN7CCCC7)c6)cc45)nc23)cn1` [Compound 196, 3-(4-(4-Methyl-1H-imidazol-1-yl)-1H-imidazo[4,5-c]pyridin-2-yl)-5-(5-(pyrrolidin-1-ylmethyl)pyridin-3-yl)-1H-pyrazolo[3,4-b]pyridine] registered an EC50 in assay [1] not below 9990 nM. Moreover, in assay [2], the IC50 is 579 nM.

In assay [1], `CN1CCN(c2nccc3[nH]c(-c4n[nH]c5ncc(-c6cncc(N)c6)cc45)nc23)CC1` [Compound 211, 5-(3-(4-(4-Methylpiperazin-1-yl)-1H-imidazo[4,5-c]pyridin-2-yl)-1H-pyrazolo[3,4-b]pyridin-5-yl)pyridin-3-amine] had an EC50 not below 9990 nM. In assay [2], the IC50 worked out at 334 nM.

In the case of `CN1CCN(c2nccc3[nH]c(-c4n[nH]c5ncc(-c6cncc(CN7CCCCC7)c6)cc45)nc23)CC1` [Compound 223, 3-(4-(4-Methylpiperazin-1-yl)-1H-imidazo[4,5-c]pyridin-2-yl)-5-(5-(piperidin-1-ylmethyl)pyridin-3-yl)-1H-pyrazolo[3,4-b]pyridine], the EC50 in assay [1] is not below 9990 nM. Also, in assay [2], the IC50 is more than 10000 nM.

Consider `Cc1ccncc1-c1cnc2[nH]nc(-c3nc4c(-c5ccsc5)nccc4[nH]3)c2c1` [Compound 239, 5-(4-Methylpyridin-3-yl)-3-(4-(thiophen-3-yl)-1H-imidazo[4,5-c]pyridin-2-yl)-1H-pyrazolo[3,4-b]pyridine], for which the EC50 in assay [1] was 24 nM. The IC50 in assay [2] is 18 nM.

Consider `O=C(Nc1cncc(-c2cnc3[nH]nc(-c4nc5c(-c6ccsc6)nccc5[nH]4)c3c2)c1)c1ccccc1` [Compound 245, N-(5-(3-(4-(Thiophen-3-yl)-1H-imidazo[4,5-c]pyridin-2-yl)-1H-pyrazolo[3,4-b]pyridin-5-yl)pyridin-3-yl)benzamide], for which the EC50 in assay [1] stood at 280 nM. The compound also registered an IC50 in assay [2] of 102 nM.

With `c1ccc(CNCc2cncc(-c3cnc4[nH]nc(-c5nc6c(-c7ccsc7)nccc6[nH]5)c4c3)c2)cc1` [Compound 257, N-Benzyl-1-(5-(3-(4-(thiophen-3-yl)-1H-imidazo[4,5-c]pyridin-2-yl)-1H-pyrazolo[3,4-b]pyridin-5-yl)pyridin-3-yl)methanamine], it took 244 nM to reach a half-maximal effect in assay [1] (EC50). The IC50 in assay [2] stood at 309 nM.

In assay [1], `c1cc2[nH]c(-c3n[nH]c4ncc(-c5cncc(CNCC6CCCC6)c5)cc34)nc2c(-c2ccoc2)n1` [Compound 284, 1-Cyclopentyl-N-((5-(3-(4-(furan-3-yl)-1H-imidazo[4,5-c]pyridin-2-yl)-1H-pyrazolo[3,4-b]pyridin-5-yl)pyridin-3-yl)methyl)methanamine] had an EC50 of 1180 nM. This compound also yielded an IC50 in assay [2] of 875 nM.

With `CCC(=O)Nc1cncc(-c2cnc3[nH]nc(-c4nc5c(-c6cccs6)nccc5[nH]4)c3c2)c1` [Compound 287, N-(5-(3-(4-(Thiophen-2-yl)-1H-imidazo[4,5-c]pyridin-2-yl)-1H-pyrazolo[3,4-b]pyridin-5-yl)pyridin-3-yl)propionamide], in assay [1], the EC50 turned out to be 578 nM. This compound also returned an IC50 in assay [2] of 22.9 nM.

In the case of `CN(C)c1cncc(-c2cnc3[nH]nc(-c4nc5c(-c6cccs6)nccc5[nH]4)c3c2)c1` [Compound 293, N,N-Dimethyl-5-(3-(4-(thiophen-2-yl)-1H-imidazo[4,5-c]pyridin-2-yl)-1H-pyrazolo[3,4-b]pyridin-5-yl)pyridin-3-amine], the response in assay [1] was half-maximal at 9 nM (EC50). The compound also showed an IC50 in assay [2] of 37.1 nM.

In the case of `CN(C)Cc1cncc(-c2cnc3[nH]nc(-c4nc5c(-c6cccs6)nccc5[nH]4)c3c2)c1` [Compound 299, N,N-Dimethyl-1-(5-(3-(4-(thiophen-2-yl)-1H-imidazo[4,5-c]pyridin-2-yl)-1H-pyrazolo[3,4-b]pyridin-5-yl)pyridin-3-yl)methanamine], the EC50 in assay [1] was not below 9990 nM. Further, it took 1440 nM to reach half-maximal inhibition in assay [2] (IC50).

Regarding `FC1(F)CCN(Cc2cncc(-c3cnc4[nH]nc(-c5nc6c(-c7cccs7)nccc6[nH]5)c4c3)c2)C1` [Compound 311, 5-(5-((3,3-Difluoropyrrolidin-1-yl)methyl)pyridin-3-yl)-3-(4-(thiophen-2-yl)-1H-imidazo[4,5-c]pyridin-2-yl)-1H-pyrazolo[3,4-b]pyridine], it took 174 nM to reach a half-maximal effect in assay [1] (EC50). Moreover, in assay [2], the IC50 is 22.8 nM.
